This passage reports EC50 results from US11505558B1, “Antiviral heterocyclic compounds” (Enanta Pharmaceuticals, Inc., priority 2019, dated 2022).

Structures are written as SMILES.

The test system of this assay is genotype A, "Long" strain RSV. As to the kind of experiment: RSV-A assay (CPE, ATPlite readout in Hep-2 cells). As to conditions: human respiratory syncytial virus, HEp-2, Hep-2 cells, genotype A "Long" strain RSV, MOI 0.1; read-out: Human RSV-A (“Long” strain) EC50. In kind it is cell-based. A digest of the protocol:
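Hep-2 cells (8,000/well) received 2-fold serial compound dilutions in duplicate and RSV Long strain at MOI 0.1. After 5 days' incubation, cell health was read as ATP by ATPlite luminescence, with virus-only and uninfected controls defining max and minimum CPE; EC50 reported.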
Background: ATP-based viability assays read luminescence as a measure of living cells.
The term EC50 denotes the concentration that produces a half-maximal response. Consider `CCOc1ccc2[nH]c(C(=O)NC[C@](O)(c3cc4c(c(-c5ccc(F)cc5)n3)OC[C@]4(C)C(N)=O)C(F)(F)F)cc2c1` [Example 297], for which the EC50 was > 200 nM. The value for `C[C@]1(C(N)=O)COc2c1cc([C@@](O)(CNC(=O)c1cncnc1)C(F)(F)F)nc2-c1ccc(F)cc1` [Example 298] was > 200 nM; that for `C[C@]1(C(N)=O)COc2c1cc([C@@](O)(CNC(=O)c1cnccn1)C(F)(F)F)nc2-c1ccc(F)cc1` [Example 299] was > 200 nM; that for `Cn1ncc2ccc(C(=O)NC[C@](O)(c3cc4c(c(-c5ccc(F)cc5)n3)OC[C@]4(C)C(N)=O)C(F)(F)F)cc21` [Example 300] was < 200 nM. The value for `C[C@]1(C(N)=O)COc2c1cc([C@@](O)(CNC(=O)c1ccnc(C(F)(F)F)n1)C(F)(F)F)nc2-c1ccc(F)cc1` [Example 301] was > 200 nM; that for `C[C@]1(C(N)=O)COc2c1cc([C@@](O)(CNC(=O)c1nc3cccnc3[nH]1)C(F)(F)F)nc2-c1ccc(F)cc1` [Example 302] was > 200 nM.

As to `C[C@]1(C(N)=O)COc2c1cc([C@@](O)(CNC(=O)c1cc3cccnc3[nH]1)C(F)(F)F)nc2-c1ccc(F)cc1` [Example 303], the EC50 was < 200 nM. The same measure for `COc1ccc2cc(C(=O)NC[C@](O)(c3cc4c(c(-c5ccc(F)cc5)n3)OC[C@]4(C)C(N)=O)C(F)(F)F)[nH]c2c1` [Example 304]: < 200 nM; for `COc1cncc(C(=O)NC[C@](O)(c2cc3c(c(-c4ccc(F)cc4)n2)OC[C@]3(C)C(N)=O)C(F)(F)F)c1` [Example 305]: > 200 nM. The same measure for `C[C@]1(C(N)=O)COc2c1cc([C@@](O)(CNC(=O)c1ccc3cc[nH]c3n1)C(F)(F)F)nc2-c1ccc(F)cc1` [Example 306]: > 200 nM; for `C[C@]1(C(N)=O)COc2c1cc([C@@](O)(CNC(=O)c1cn3ncccc3n1)C(F)(F)F)nc2-c1ccc(F)cc1` [Example 307]: > 200 nM.

For the molecule `C[C@]1(C(N)=O)COc2c1cc([C@@](O)(CNC(=O)c1ccccc1)C(F)(F)F)nc2-c1ccc(F)cc1` [Example 308], the EC50 was > 200 nM. The value for `COc1cccc(C(=O)NC[C@](O)(c2cc3c(c(-c4ccc(F)cc4)n2)OC[C@]3(C)C(N)=O)C(F)(F)F)c1` [Example 309] was > 200 nM. The same measure for `COc1cc(C(=O)NC[C@](O)(c2cc3c(c(-c4ccc(F)cc4)n2)OC[C@]3(C)C(N)=O)C(F)(F)F)ccc1O` [Example 310]: < 200 nM; for `C[C@]1(C(N)=O)COc2c1cc([C@@](O)(CNC(=O)c1ccc3[nH]ccc3c1)C(F)(F)F)nc2-c1ccc(F)cc1` [Example 311]: < 200 nM; for `COc1nc2ccc(C(=O)NC[C@](O)(c3cc4c(c(-c5ccc(F)cc5)n3)OC[C@]4(C)C(N)=O)C(F)(F)F)cc2s1` [Example 312]: < 200 nM. The same measure for `C[C@]1(C(N)=O)COc2c1cc([C@@](O)(CNC(=O)c1ccc3c(c1)NC(=O)CO3)C(F)(F)F)nc2-c1ccc(F)cc1` [Example 313]: > 200 nM; for `C[C@]1(C(N)=O)COc2c1cc([C@@](O)(CNC(=O)c1ccc3nc(C(F)(F)F)sc3c1)C(F)(F)F)nc2-c1ccc(F)cc1` [Example 314]: < 200 nM.

In the case of `Cn1nnc2cc(C(=O)NC[C@](O)(c3cc4c(c(-c5ccc(F)cc5)n3)OC[C@]4(C)C(N)=O)C(F)(F)F)ccc21` [Example 315], the EC50 was > 200 nM.

As to `COc1cc(C(=O)NC[C@](O)(c2cc3c(c(-c4ccc(F)cc4)n2)OC[C@]3(C)C(N)=O)C(F)(F)F)ccc1F` [Example 316], the half-maximal effective concentration (EC50) is > 200 nM. The value for `COc1cc(C(=O)NC[C@](O)(c2cc3c(c(-c4ccc(F)cc4)n2)OC[C@@]3(C)C(N)=O)C(F)(F)F)ccc1OCCF` [Example 317] was > 200 nM. The value for `COc1cc(C(=O)NC[C@](O)(c2cc3c(c(-c4ccc(F)cc4)n2)OC[C@]3(C)C(N)=O)C(F)(F)F)ccc1C#N` [Example 318] was > 200 nM; that for `COc1ccc(C(=O)NC[C@](O)(c2cc3c(c(-c4ccc(F)cc4)n2)OC[C@]3(C)C(N)=O)C(F)(F)F)cc1C#N` [Example 319] was < 200 nM. As to `C[C@]1(C(N)=O)COc2c1cc([C@@](O)(CNC(=O)c1ccc(C#N)c(F)c1)C(F)(F)F)nc2-c1ccc(F)cc1` [Example 320], the concentration giving a half-maximal response (EC50) was > 200 nM. The same measure for `C[C@]1(C(N)=O)COc2c1cc([C@@](O)(CNC(=O)c1ccc3[nH]c(=O)[nH]c3c1)C(F)(F)F)nc2-c1ccc(F)cc1` [Example 321]: > 200 nM. The value for `Cn1c(=O)n(C)c2cc(C(=O)NC[C@](O)(c3cc4c(c(-c5ccc(F)cc5)n3)OC[C@]4(C)C(N)=O)C(F)(F)F)ccc21` [Example 322] was > 200 nM; that for `C[C@]1(C(N)=O)COc2c1cc([C@@](O)(CNC(=O)c1ccc3oc(=O)[nH]c3c1)C(F)(F)F)nc2-c1ccc(F)cc1` [Example 323] was > 200 nM; that for `C[C@]1(C(N)=O)COc2c1cc([C@@](O)(CNC(=O)c1ccc(F)c(C#N)c1)C(F)(F)F)nc2-c1ccc(F)cc1` [Example 324] was > 200 nM. The value for `Cn1c(=O)[nH]c2cc(C(=O)NC[C@](O)(c3cc4c(c(-c5ccc(F)cc5)n3)OC[C@]4(C)C(N)=O)C(F)(F)F)ccc21` [Example 325] was > 200 nM; that for `Cn1c(=O)[nH]c2ccc(C(=O)NC[C@](O)(c3cc4c(c(-c5ccc(F)cc5)n3)OC[C@]4(C)C(N)=O)C(F)(F)F)cc21` [Example 326] was > 200 nM; that for `C[C@]1(C(N)=O)COc2c1cc([C@@](O)(CNC(=O)c1ccc3ncc(=O)[nH]c3c1)C(F)(F)F)nc2-c1ccc(F)cc1` [Example 327] was > 200 nM. With `Cn1c(=O)oc2ccc(C(=O)NC[C@](O)(c3cc4c(c(-c5ccc(F)cc5)n3)OC[C@]4(C)C(N)=O)C(F)(F)F)cc21` [Example 328], the half-maximal effective concentration (EC50) is > 200 nM. The value for `COc1cc(C(=O)NC[C@](O)(C2=CC3C(OC[C@]3(C)C(N)=O)C(c3ccc(F)cc3)=N2)C(F)(F)F)ccc1Cl` (stereo partly shown) [Example 329] was < 200 nM; that for `COc1ccc(C(=O)NC[C@](O)(c2cc3c(c(-c4ccc(F)cc4)n2)OC[C@]3(C)C(N)=O)C(F)(F)F)cc1Cl` [Example 330] was < 200 nM; that for `COc1ccc2c(C(=O)NC[C@](O)(c3cc4c(c(-c5ccc(F)cc5)n3)OC[C@]4(C)C(N)=O)C(F)(F)F)n[nH]c2c1` [Example 331] was > 200 nM. The value for `COc1cc(OC)c2cc(C(=O)NC[C@](O)(c3cc4c(c(-c5ccc(F)cc5)n3)OC[C@]4(C)C(N)=O)C(F)(F)F)[nH]c2c1` [Example 332] was < 200 nM; that for `Cn1cnc2cc(C(=O)NC[C@](O)(c3cc4c(c(-c5ccc(F)cc5)n3)OC[C@]4(C)C(N)=O)C(F)(F)F)ccc21` [Example 333] was > 200 nM; that for `Cn1cnc2ccc(C(=O)NC[C@](O)(c3cc4c(c(-c5ccc(F)cc5)n3)OC[C@]4(C)C(N)=O)C(F)(F)F)cc21` [Example 334] was > 200 nM. Regarding `C[C@]1(C(N)=O)COc2c1cc([C@@](O)(CNC(=O)c1cc(Nc3ccccn3)c3ncccc3c1)C(F)(F)F)nc2-c1ccc(F)cc1` [Example 338], the EC50 was < 200 nM. The same measure for `C[C@]1(C(N)=O)COc2c1cc([C@@](O)(CNC(=O)c1cc(Nc3ccncn3)c3ncccc3c1)C(F)(F)F)nc2-c1ccc(F)cc1` [Example 343]: < 200 nM.
